Experimental data published in patent US8748415B2 (priority 2011, dated 2014).

Each molecule was assayed on recombinant NL4-3 virus (Renilla luciferase in nef, Gag P373S) (assay: HIV cell culture assay (luciferase activity in MT-2 cells infected with NLRluc recombinant virus)). Conditions: NL43, MT-2 cells infected 4-5 days with NLRluc recombinant virus, class symbol.
Assay type: cell-based
Summary of the method: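 MT-2 cells in RPMI/10% FBS were infected with recombinant NL4-3 (NLRluc), produced by 293T transfection and titered in MT-2 by luciferase. Serial inhibitor dilutions were present throughout a 4–5 day infection. Antiviral activity was quantified as Renilla luciferase signal via a modified Dual Luciferase read.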

`C=C(C)[C@@H]1CC[C@]2(CN3CCOC3=O)CC[C@]3(C)[C@H](CC[C@@H]4[C@@]5(C)CC=C(c6ccc(C(=O)O)cc6)C(C)(C)[C@@H]5CC[C@]43C)[C@@H]12` [Example 182, 4-((1R,3aS,5aR,5bR,7aR,11aS,11bR,13aR,13bR)-5a,5b,8,8,11a-pentamethyl-3a-((2-oxooxazolidin-3-yl)methyl)-1-(prop-1-en-2-yl)-2,3,3a,4,5,5a,5b,6,7,7a,8,11,11a,11b,12,13,13a,13b-octadecahydro-1H-cyclopenta[a]chrysen-9-yl)benzoic acid] and `C=C(C)[C@@H]1CC[C@]2(CN)CC[C@]3(C)[C@H](CC[C@@H]4[C@@]5(C)CC=C(c6ccc(C(=O)O)cc6)C(C)(C)[C@@H]5CC[C@]43C)[C@@H]12` [Example 174, 4-((1R,3aS,5aR,5bR,7aR,11aS,11bR,13aR,13bR)-3a-(aminomethyl)-5a,5b,8,8,11a-pentamethyl-1-(prop-1-en-2-yl)-2,3,3a,4,5,5a,5b,6,7,7a,8,11,11a,11b,12,13,13a,13b-octadecahydro-1H-cyclopenta[a]chrysen-9-yl)benzoic acid] cannot be ordered by EC50: less than 0.1 µM for the first, less than 0.1 µM for the second.

`C=C(C)[C@@H]1CC[C@]2(CNC(=O)CCN3CCNCC3)CC[C@]3(C)[C@H](CC[C@@H]4[C@@]5(C)CC=C(c6ccc(C(=O)O)cc6)C(C)(C)[C@@H]5CC[C@]43C)[C@@H]12` [Example 141, 4-((1R,3aS,5aR,5bR,7aR,11aS,11bR,13aR,13bR)-5a,5b,8,8,11a-pentamethyl-3a-((3-(piperazin-1-yl)propanamido)methyl)-1-(prop-1-en-2-yl)-2,3,3a,4,5,5a,5b,6,7,7a,8,11,11a,11b,12,13,13a,13b-octadecahydro-1H-cyclopenta[a]chrysen-9-yl)benzoic acid] and `C=C(C)[C@@H]1CC[C@]2(CNC(=O)CN3CCCCS3(=O)=O)CC[C@]3(C)[C@H](CC[C@@H]4[C@@]5(C)CC=C(c6ccc(C(=O)O)cc6)C(C)(C)[C@@H]5CC[C@]43C)[C@@H]12` [Example 147, 4-((1R,3aS,5aR,5bR,7aR,11aS,11bR,13aR,13bR)-3a-((((1,1-dioxido-1,2-thiazinan-2-yl)acetyl)amino)methyl)-1-isopropenyl-5a,5b,8,8,11a-pentamethyl-2,3,3a,4,5,5a,5b,6,7,7a,8,11,11a,11b,12,13,13a,13b-octadecahydro-1H-cyclopenta[a]chrysen-9-yl)benzoic acid] cannot be ordered by EC50: less than 0.1 µM for the first, less than 0.1 µM for the second.

`C=C(C)[C@@H]1CC[C@]2(CNCC(=O)N3CCS(=O)(=O)CC3)CC[C@]3(C)[C@H](CC[C@@H]4[C@@]5(C)CC=C(c6ccc(C(=O)O)cc6)C(C)(C)[C@@H]5CC[C@]43C)[C@@H]12` [Example 108, 4-((1R,3aS,5aR,5bR,7aR,11aS,11bR,13aR,13bR)-3a-(((2-(1,1-dioxido-4-thiomorpholinyl)-2-oxoethyl)amino)methyl)-1-isopropenyl-5a,5b,8,8,11a-pentamethyl-2,3,3a,4,5,5a,5b,6,7,7a,8,11,11a,11b,12,13,13a,13b-octadecahydro-1H-cyclopenta[a]chrysen-9-yl)benzoic acid] and `C=C(C)[C@@H]1CC[C@]2(CNCCC(=O)N3CCS(=O)(=O)C3)CC[C@]3(C)[C@H](CC[C@@H]4[C@@]5(C)CC=C(c6ccc(C(=O)O)cc6)C(C)(C)[C@@H]5CC[C@]43C)[C@@H]12` [Example 120, 4-((1R,3aS,5aR,5bR,7aR,11aS,11bR,13aR,13bR)-3a-(((3-(1,1-dioxido-1,3-thiazolidin-3-yl)-3-oxopropyl)amino)methyl)-1-isopropenyl-5a,5b,8,8,11a-pentamethyl-2,3,3a,4,5,5a,5b,6,7,7a,8,11,11a,11b,12,13,13a,13b-octadecahydro-1H-cyclopenta[a]chrysen-9-yl)benzoic acid] cannot be ordered by EC50: less than 0.1 µM for the first, less than 0.1 µM for the second.

`C=C(C)[C@@H]1CC[C@]2(CNCCN3CCSCC3)CC[C@]3(C)[C@H](CC[C@@H]4[C@@]5(C)CC=C(c6ccc(C(=O)O)cc6)C(C)(C)[C@@H]5CC[C@]43C)[C@@H]12` [Example 86] and `C=C(C)[C@@H]1CC[C@]2(CNCCN3CCOCC3)CC[C@]3(C)[C@H](CC[C@@H]4[C@@]5(C)CC=C(c6ccc(C(=O)O)cc6)C(C)(C)[C@@H]5CC[C@]43C)[C@@H]12` [Example 63, 4-((1R,3aS,5aR,5bR,7aR,11aS,11bR,13aR,13bR)-5a,5b,8,8,11a-pentamethyl-3a-((2-morpholinoethylamino)methyl)-1-(prop-1-en-2-yl)-2,3,3a,4,5,5a,5b,6,7,7a,8,11,11a,11b,12,13,13a,13b-octadecahydro-1H-cyclopenta[a]chrysen-9-yl)benzoic acid] cannot be ordered by EC50: less than 0.1 µM for the first, less than 0.1 µM for the second.

First: C=C(C)[C@@H]1CC[C@]2(CNC(=O)C(F)(F)C(=O)O)CC[C@]3(C)[C@H](CC[C@@H]4[C@@]5(C)CC=C(c6ccc(C(=O)O)cc6)C(C)(C)[C@@H]5CC[C@]43C)[C@@H]12 [Example 153, 4-((1R,3aS,5aR,5bR,7aR,11aS,11bR,13aR,13bR)-3a-((2-carboxy-2,2-difluoroacetamido)methyl)-5a,5b,8,8,11a-pentamethyl-1-(prop-1-en-2-yl)-2,3,3a,4,5,5a,5b,6,7,7a,8,11,11a,11b,12,13,13a,13b-octadecahydro-1H-cyclopenta[a]chrysen-9-yl)benzoic acid]
Second: C=C(C)[C@@H]1CC[C@]2(CNCCCO)CC[C@]3(C)[C@H](CC[C@@H]4[C@@]5(C)CC=C(c6ccc(C(=O)O)cc6)C(C)(C)[C@@H]5CC[C@]43C)[C@@H]12 [Example 69, 4-((1R,3aS,5aR,5bR,7aR,11aS,11bR,13aR,13bR)-3a-((3-hydroxypropylamino)methyl)-5a,5b,8,8,11a-pentamethyl-1-(prop-1-en-2-yl)-2,3,3a,4,5,5a,5b,6,7,7a,8,11,11a,11b,12,13,13a,13b-octadecahydro-1H-cyclopenta[a]chrysen-9-yl)benzoic acid]
The EC50 of the first is higher: greater than 0.1 µM for the first, less than 0.1 µM for the second.

`C=C(C)[C@@H]1CC[C@]2(CNCCCN3CCN(C)CC3)CC[C@]3(C)[C@H](CC[C@@H]4[C@@]5(C)CC=C(c6ccc(C(=O)O)cc6)C(C)(C)[C@@H]5CC[C@]43C)[C@@H]12` [Example 56, 4-((1R,3aS,5aR,5bR,7aR,11aS,11bR,13aR,13bR)-5a,5b,8,8,11a-pentamethyl-3a-((3-(4-methylpiperazin-1-yl)propylamino)methyl)-1-(prop-1-en-2-yl)-2,3,3a,4,5,5a,5b,6,7,7a,8,11,11a,11b,12,13,13a,13b-octadecahydro-1H-cyclopenta[a]chrysen-9-yl)benzoic acid] and `C=C(C)[C@@H]1CC[C@]2(CNCCCN3CCCCC3)CC[C@]3(C)[C@H](CC[C@@H]4[C@@]5(C)CC=C(c6ccc(C(=O)O)cc6)C(C)(C)[C@@H]5CC[C@]43C)[C@@H]12` [Example 72, 4-((1R,3aS,5aR,5bR,7aR,11aS,11bR,13aR,13bR)-5a,5b,8,8,11a-pentamethyl-3a-((3-(piperidin-1-yl)propylamino)methyl)-1-(prop-1-en-2-yl)-2,3,3a,4,5,5a,5b,6,7,7a,8,11,11a,11b,12,13,13a,13b-octadecahydro-1H-cyclopenta[a]chrysen-9-yl)benzoic acid] cannot be ordered by EC50: less than 0.1 µM for the first, less than 0.1 µM for the second.

`C=C(C)[C@@H]1CC[C@]2(CNCCS(C)(=O)=O)CC[C@]3(C)[C@H](CC[C@@H]4[C@@]5(C)CC=C(c6ccc(C(=O)O)cc6)C(C)(C)[C@@H]5CC[C@]43C)[C@@H]12` [Example 41, 4-((1R,3aS,5aR,5bR,7aR,11aS,11bR,13aR,13bR)-5a,5b,8,8,11a-pentamethyl-3a-((2-(methylsulfonyl)ethylamino)methyl)-1-(prop-1-en-2-yl)-2,3,3a,4,5,5a,5b,6,7,7a,8,11,11a,11b,12,13,13a,13b-octadecahydro-1H-cyclopenta[a]chrysen-9-yl)benzoic acid] and `C=C(C)[C@@H]1CC[C@]2(CNCCN3CCN(S(C)(=O)=O)CC3)CC[C@]3(C)[C@H](CC[C@@H]4[C@@]5(C)CC=C(c6ccc(C(=O)O)cc6)C(C)(C)[C@@H]5CC[C@]43C)[C@@H]12` [Example 179, 4-((1R,3aS,5aR,5bR,7aR,11aS,11bR,13aR,13bR)-5a,5b,8,8,11a-pentamethyl-3a-((2-(4-(methylsulfonyl)piperazin-1-yl)ethylamino)methyl)-1-(prop-1-en-2-yl)-2,3,3a,4,5,5a,5b,6,7,7a,8,11,11a,11b,12,13,13a,13b-octadecahydro-1H-cyclopenta[a]chrysen-9-yl)benzoic acid] cannot be ordered by EC50: less than 0.1 µM for the first, less than 0.1 µM for the second.

`C=C(C)[C@@H]1CC[C@]2(CNCCCCN3CCS(=O)(=O)CC3)CC[C@]3(C)[C@H](CC[C@@H]4[C@@]5(C)CC=C(c6ccc(C(=O)O)cc6)C(C)(C)[C@@H]5CC[C@]43C)[C@@H]12` [Example 76, 4-((1R,3aS,5aR,5bR,7aR,11aS,11bR,13aR,13bR)-3a-(((4-(1,1-dioxido-4-thiomorpholinyl)butyl)amino)methyl)-1-isopropenyl-5a,5b,8,8,11a-pentamethyl-2,3,3a,4,5,5a,5b,6,7,7a,8,11,11a,11b,12,13,13a,13b-octadecahydro-1H-cyclopenta[a]chrysen-9-yl)benzoic acid] and `C=C(C)[C@@H]1CC[C@]2(CNC(=O)OCCCN3CCCC3=O)CC[C@]3(C)[C@H](CC[C@@H]4[C@@]5(C)CC=C(c6ccc(C(=O)O)cc6)C(C)(C)[C@@H]5CC[C@]43C)[C@@H]12` [Example 166, 4-((1R,3aS,5aR,5bR,7aR,11aS,11bR,13aR,13bR)-5a,5b,8,8,11a-pentamethyl-3a-(((3-(2-oxopyrrolidin-1-yl)propoxy)carbonylamino)methyl)-1-(prop-1-en-2-yl)-2,3,3a,4,5,5a,5b,6,7,7a,8,11,11a,11b,12,13,13a,13b-octadecahydro-1H-cyclopenta[a]chrysen-9-yl)benzoic acid] cannot be ordered by EC50: less than 0.1 µM for the first, less than 0.1 µM for the second.

Same assay, conditions: NL43, MT-2 cells infected 4-5 days with NLRluc recombinant virus, numeric value

Molecule `C=C(C)[C@@H]1CC[C@]2(CNCCC(=O)N3CCC4(CC3)OCCO4)CC[C@]3(C)[C@H](CC[C@@H]4[C@@]5(C)CC=C(c6ccc(C(=O)O)cc6)C(C)(C)[C@@H]5CC[C@]43C)[C@@H]12` [Example 126] has an EC50 of 0.001 µM.
